In patent US20210267953A1, “SUBSTITUTED OXAZOLIDINONES FOR THE TREATMENT OF MAMMALIAN INFECTIONS” (CADILA HEALTHCARE LIMITED, priority 2018, published 2021):
Converted amounts (≈) assume the structure as drawn.

What follows are compounds tested on Mycobacterium tuberculosis H37Rv (assay: Minimum Inhibitory Concentration (MIC) determination, MABA assay). Conditions: Microplate Alamar Blue Assay, M. tuberculosis H37Rv log phase culture in 7H-9 medium, 7 days at 37° C., lowest concentration that prevents colour change blue to pink, read-out: Mtb MIC.
Format: cell-based
For CC(=O)NC[C@H]1CN(c2cc(F)c(N3CCC(C4COC4)CC3)c(F)c2)C(=O)O1 [Example 8, (S)—N-((3-(3,5-difluoro-4-(4-(oxetan-3-yl)piperidin-1-yl)phenyl)-2-oxooxazolidin-5-yl)methyl)acetamide], the MIC was 2.5 µM (≈ 1.02 µg/mL). CC(=O)NC[C@H]1CN(c2cc(F)c(N3CCC4(CC3)CS(=O)(=O)C4)c(F)c2)C(=O)O1 [Example 3, (S)—N-((3-(4-(2,2-dioxido-2-thia-7-azaspiro[3.5]nonan-7-yl)-3,5-difluorophenyl)-2-oxooxazolidin-5-yl)methyl)acetamide] showed an MIC of 1.25 µM (≈ 0.554 µg/mL). CC(=O)NC[C@H]1CN(c2ccc(N3CCC4(CC3)COC4)c(F)c2)C(=O)O1 [Example 7, (S)—N-((3-(3-fluoro-4-(2-oxa-7-azaspiro[3.5]nonan-7-yl)phenyl)-2-oxooxazolidin-5-yl)methyl)acetamide] was tested, and the MIC was 2.5 µM (≈ 0.944 µg/mL). With CC(=O)NC[C@H]1CN(c2ccc(N3CCC4(CC3)CS(=O)(=O)C4)c(F)c2)C(=O)O1 [Example 5, (S)—N-((3-(4-(2,2-dioxido-2-thia-7-azaspiro[3.5]nonan-7-yl)-3-fluorophenyl)-2-oxooxazolidin-5-yl)methyl)acetamide] the MIC was 1.25 µM (≈ 0.532 µg/mL). In the case of CC(=O)NC[C@H]1CN(c2cc(F)c(N3CCC(C4CS(=O)(=O)C4)CC3)c(F)c2)C(=O)O1 [Example 9, (S)—N-((3-(4-(4-(1,1-dioxidothietan-3-yl)piperidin-1-yl)-3,5-difluorophenyl)-2-oxooxazolidin-5-yl)methyl)acetamide], the MIC is reported as 1.25 µM (≈ 0.572 µg/mL). In the case of O=C1O[C@@H](Cn2ccnn2)CN1c1cc(F)c(N2CCC3(CC2)CS(=O)(=O)C3)c(F)c1 [Example 1, (R)-5-((1H-1,2,3-triazol-1-yl)methyl)-3-(4-(2,2-dioxido-2-thia-7-azaspiro[3.5]nonan-7-yl)-3,5-difluorophenyl)oxazolidin-2-one], the MIC is reported as 1.25 µM (≈ 0.567 µg/mL). COC(=O)NC[C@H]1CN(c2cc(F)c(N3CCC4(CC3)CS(=O)(=O)C4)c(F)c2)C(=O)O1 [Example 4, (S)-methyl ((3-(4-(2,2-dioxido-2-thia-7-azaspiro[3.5]nonan-7-yl)-3,5-difluorophenyl)-2-oxooxazolidin-5-yl)methyl)carbamate] was tested, and the MIC was 1.25 µM (≈ 0.574 µg/mL). Compound O=C1O[C@@H](CNc2ccon2)CN1c1cc(F)c(N2CCC3(CC2)CS(=O)(=O)C3)c(F)c1 [Example 2, (S)-3-(4-(2,2-dioxido-2-thia-7-azaspiro[3.5]nonan-7-yl)-3,5-difluorophenyl)-5-((isoxazol-3-ylamino)methyl)oxazolidin-2-one] has an MIC of 1.25 µM (≈ 0.586 µg/mL). CC(=O)NC[C@H]1CN(c2cc(F)c(N3CCC4(CC3)COC4)c(F)c2)C(=O)O1 [Example 6, (S)—N-((3-(3,5-difluoro-4-(2-oxa-7-azaspiro[3.5]nonan-7-yl)phenyl)-2-oxooxazolidin-5-yl)methyl)acetamide] gave an MIC of 1.25 to 2.5 µM (≈ 0.494 to 0.989 µg/mL). Work on CC(=O)NC[C@H]1CN(c2ccc(N3CCC(C4CS(=O)(=O)C4)CC3)c(F)c2)C(=O)O1 [Example 10, (S)—N-((3-(4-(4-(1,1-dioxidothietan-3-yl)piperidin-1-yl)-3-fluorophenyl)-2-oxooxazolidin-5-yl)methyl)acetamide] yielded an MIC of 2.5 µM (≈ 1.1 µg/mL).
